Assay results: patent US20170073679A1, “Compositions and Methods for Selective Delivery of Oligonucleotide Molecules to Cell Types” (nLife Therapeutics, S.L., priority 2012, published 2017)
pEC50, pKi: −log10 of the molar value. d = 2'-deoxy (DNA); m = 2'-O-methyl

Tests used:
[1] = molecular target: human recombinant GHS-R1a (Homo sapiens, UniProt Q92847); settings: cited from earlier work
[2] = system: rat pituitary cells; settings: read-out: EC50, stimulates GH release; cited from earlier work
[3] = system: obese animals (high fat diet); experiment: Physiological effect of tabimorelin conjugated antisense oligonucleotides in a high-fat diet model of obesity; type: in vivo; settings: 10 doses in 12 days of 30 μg intranasally
Protocol: Animals were fed a high fat diet (HFD) (TD.06414, 60% fat, Harlan) or a standard diet (Control diet: 2014, Harlan) for 12 weeks. Those obese animals that weighed more than the mean body weight of the lean animals plus 2 times the lean standard deviation were selected:
Obese BW>lean BW mean+2×lean SD
The day of administration animals were fasted for 8 hours. Under isofluorane anesthesia, 10 doses in 12 days of 30 μg of the following molecules were intranasally administered (5 μl per nostril): • Vehicle (VH) (1×PBS) • TAB-NS-ASO4 (NS)(Non-sense sequence directed with tabimorelin) • TAB-SOCS3-ASO4 (SOCS3)(antisense sequence against socs3 mRNA directed with tabimorelin) • TAB-PTP1B-ASO4 (PTP1B)(antisense sequence against ptp1b mRNA directed with tabimorelin
Body weight and food intake were daily monitored. 48 hours after the last administration animals were sacrificed and tissues collected for further analysis.

Chain of human recombinant GHS-R1a (Q92847 whole entry): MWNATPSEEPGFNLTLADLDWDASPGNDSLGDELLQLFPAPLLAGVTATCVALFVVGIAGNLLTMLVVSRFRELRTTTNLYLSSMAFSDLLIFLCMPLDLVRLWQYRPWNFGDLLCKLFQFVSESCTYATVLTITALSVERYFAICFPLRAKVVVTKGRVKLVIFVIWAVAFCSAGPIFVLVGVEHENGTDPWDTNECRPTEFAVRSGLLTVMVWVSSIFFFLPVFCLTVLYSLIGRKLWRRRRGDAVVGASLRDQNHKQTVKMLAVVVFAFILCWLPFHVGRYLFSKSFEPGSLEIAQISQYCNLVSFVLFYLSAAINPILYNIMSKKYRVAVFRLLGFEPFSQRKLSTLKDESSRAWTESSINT

Compound | pKi [1] | pEC50 [2] | Daily BW gain (mean of changes in daily body weight) [3] | Cumulative body weight (BW) gain ([3]; vs VH and NS) | Cumulative food intake (FI) ([3]; vs VH and NS) | Daily FI (mean of daily food ingestion) ([3]; vs VH and NS)
CNC(=O)[C@@H](Cc1ccccc1)N(C)C(=O)[C@@H](Cc1ccc2ccccc2c1)N(C)C(=O)/C=C/CC(C)(C)N [Tabimorelin] | 7.30 | 8.57 |  |  |  | 
TAB-SOCS3-ASO4: antisense sequence against socs3 mRNA directed with tabimorelin; 20-mer with 10 DNA core and 2′-o-methyl flanks (antisense GUGGCGCTGGTCCGAGCTGT; sugars from the 5' end m5 d10 m5, backbone and methylation of C not given here; tabimorelin conjugate attached) |  |  | not being significantly different between groups, a decrease was observed | gained significantly less weight than control animals | significantly decreased | decreased
